We go through one compound from patent US11357737B2, “Chitosan nanofibers containing bioactive compounds” (FUNDACION COPEC UNIVERSIDAD CATÓLICA, priority 2015, dated 2022).

A short description of one series: in vitro. The note with it: rat. The source says:
Brains were used from 18-day rat embryos. The extracted hippocampi were placed in modified Hanks saline solution (mHBSS, for its name in English: Hank's buffer salt solution) and washed three times to then add trypsin (0.25%). After this treatment, the hippocampi were washed with mHBSS and transferred to a MEM medium (Minimum Essential Medium) supplemented with 10% horse serum (HS), disintegrating with Pasteur pipette. The cell suspension was collected by low speed centrifugation (2000×g×20 s) at room temperature. The supernatant was saved and the pellet was broken up again with a very fine tip Pasteur pipette. Another centrifugation was performed at low speed (2000×g×20 s) at room temperature. The supernatant containing the cells in suspension was pooled with the above supernatant and the viable cells were counted using Trypan blue (0.2%). Subsequently, the neurons were seeded in culture plates in MEM supplemented with 10% HS. After the hippocampal neurons adhered to the plaque, they were exchanged for medium with a Neurobasal medium with the culture supplement B27, remaining in culture for fourteen days.
Initially, the percentage of cellular viability of said hippocampal neurons exposed to different concentrations of hydrogen peroxide was evaluated. (10, 50, 100, 200, 500 μM) during 1 h. Hydrogen peroxide (H2O2) under biological conditions, it is a highly oxidizing compound.

Series [1] can be described thus: Neuroprotection against oxidative damage by H2O2 in hippocampal cultures (neuronal viability). The conditions noted are these: rat, primary hippocampal neurons from 18-day rat embryos; 50 μM H2O2 for 1 h, vehicle pre-incubation, 24 h after exposure; read-out: cell viability in the control condition (vehicle) after H2O2. The series is classed as cell-based. On the procedure:
Brains were used from 18-day rat embryos.
The hippocampal neurons of rat obtained in point 2.1 were used to evaluate the neuroprotective effect of the nanofibers of the invention.
The neuroprotective effect of the antioxidant mixture (AOX) was evaluated, for which the neurons obtained in point 2.1 were incubated for 24 hours in a medium supplemented with the mixture of antioxidants obtained in Example 1.1. Neuronal viability was compared to control (incubated with the vehicle without antioxidants) at concentrations of 0.001, 1, 10, 100, 150 and 200 μM of AOX, before and after the exposure of crops to a concentration of 50 μM of H2O2, during 1 h of incubation.
The neuroprotective effect of the nanofibers of the invention (NF) was evaluated, for which the neurons obtained in point 2.1 were incubated for 24 hours in a medium supplemented with the nanofibers of the invention obtained in Example 1.2. The neuronal viability compared to the control (incubated with the vehicle without nanofibers) was compared with nanofibers containing concentrations of 0.001, 1, 10, 100, 150 and 200 μM of AOX, before and after the exposure of crops to a concentration of 50 μM of H2O2, during 1 hour of incubation.

Some results are limits rather than exact numbers.

Usually viability stands for a read-out of living cells in per cent, often relative to untreated cells. Consider `OO` [H2O2, Hydrogen peroxide], for which, in “in vitro”, the viability at 1 h, 10 μM was determined as 69.5%; the viability at 1 h, 50 μM worked out at 44.3%; the viability at 1 h, 100 μM worked out at 29.1%; the viability at 1 h, 200 μM amounted to 19.6%. The same compound returned a viability at 1 h, 500 μM in “in vitro” of 15.8%. For the same compound, the viability at 1 h, 50 μM in series [1] is below 50%.
